Test results as given in patent publication US20260274853A1, “BIFUNCTIONAL COMPOUNDS CONTAINING PYRIMIDINE DERIVATIVES FOR DEGRADING CYCLIN-DEPENDENT KINASE 2 VIA UBIQUITIN PROTEASOME PATHWAY” (NIKANG THERAPEUTICS, INC., priority 2022, published 2026).

What was measured:
CDK2 [1] = molecular target: T1, CDK2 (Homo sapiens, UniProt P24941); test: CDK2 HTRF assay: cellular endogenous CDK2 level in OVCAR3 cells; format: cell-based; details: 24 hours compound treatment, read-out: DC50 (half maximal degradation concentration of CDK2)
T1 construct: High-Throughput Measurement of Cellular Endogenous CDK2; endogenous in cells; host or cells: OVCAR3
Protocol: Effects of compounds on cellular CDK2 level can be monitored by a high-throughput HTRF assay or traditional Western Blot assay.
To determine half maximal degradation concentration (DC50) values of compounds, cellular CDK2 level was measured in 96-well format using HTRF total CDK2 cellular kit (Cat #64CDK2TPEG) from Cisbio.
On Day 1, OVCAR3 cells were seeded into 96-well tissue-culture treated plates at 20,000 cells/well in 200 μL and incubated overnight at 37° C. in CO2 atmosphere. On Day 2 cells were treated with compounds at concentration ranging from 0.3 to 10,000 nM using HP D300 digital dispenser. 24 hours after compound treatment, cell culture media was removed by flicking the plate and tapping the plate against clean paper towel. Immediately 30 μL 1× lysis buffer was supplemented from the kit and the plate was incubated at room temperature on shaker for 30 min. After homogenization by pipetting up and down, 8 μL cell lysate from 96-well cell culture plate was transferred to 384-well small volume white detection plate. 2 μL premixed detection solution was added and the plate was covered with sealer. To prepare the detection solution, d2 conjugated-CDK2 antibody and Eu-cryptate conjugated CDK2 antibody were diluted into detection buffer following manufacturer's instruction. Detection plates were incubated overnight at room temperature and read on ClarioStar (BMG Labtech) in TR-FRET mode (665 nM and 620 nM). The TR-FRET ratio (665 nM/620 nM) was plotted against the compound concentration and normalized to DMSO controls. Half maximal degradation concentration (DC50) values were calculated with a four-parameter logistic fit using GraphPad Prism (version 8; La Jolla, CA).
In the table below, A indicates a DC50 of less than 0.1 μM; B indicates a DC50 of greater than or equal to 0.1 μM but less than 0.5 μM; C indicates a DC50 of greater than or equal to 0.5 μM but less than 1 μM; and D indicates a DC50 of greater than or equal to 1 μM but less than 10 μM.

CDK2 [2] = molecular target: T1, CDK2; test: Inhibition of CDK2: phospho-Rb (S807/811) HTRF measurement in OVCAR3 cells; format: cell-based; details: 24 h compound treatment, read-out: pRb (nM), IC50 in pRB(S807/811) assay

Row | DC50 (CDK2 [1]) | IC50 (CDK2 [2]) | Structure (SMILES)
1 | < 100 nM | < 100 nM | CC(C)(O)Cn1cc(-c2nc(NC3CCN(S(=O)(=O)c4cccc(CN5CCN(c6ccc(N7CCC(=O)NC7=O)cc6)CC5)c4)CC3)ncc2C(F)(F)F)cn1 [Example 24, 1-(4-(4-(3-((4-((4-(1-(2-hydroxy-2-methylpropyl)-1H-pyrazol-4-yl)-5-(trifluoromethyl)pyrimidin-2-yl)amino)-piperidin-1-yl)sulfonyl)benzyl)-piperazin-1-yl)phenyl)dihydro-pyrimidine-2,4(1H,3H)-dione]
2 | < 100 nM | < 100 nM | O=C1CCN(c2ccc(N3CCN(Cc4cccc(S(=O)(=O)N5CCC(Nc6ncc(C(F)(F)F)c(-c7cnn(CC(F)(F)F)c7)n6)CC5)c4)CC3)cc2)C(=O)N1 [Example 25, 1-(4-(4-(3-((4-((4-(1-(2,2,2-trifluoro-ethyl)-1H-pyrazol-4-yl)-5-(trifluoro-methyl)pyrimidin-2-yl)amino)-piperidin-1-yl)sulfonyl)benzyl)piperazin-1-yl)-phenyl)dihydro-pyrimidine-2,4(1H,3H)-dione]
3 | < 100 nM | 100 to 500 nM | Cn1c(S(=O)(=O)N2CCC(Nc3ncc(C(F)(F)F)c(-c4cnn(CC(F)(F)F)c4)n3)CC2)cnc1CN1CCN(c2ccc(N3CCC(=O)NC3=O)cc2)CC1 [Example 26, 1-(4-(4-((1-methyl-5-((4-((4-(1-(2,2,2-trifluoroethyl)-1H-pyrazol-4-yl)-5-(trifluoromethyl)pyrimidin-2-yl)amino)-piperidin-1-yl)sulfonyl)-1H-imidazol-2-yl)methyl)piperazin-1-yl)phenyl)dihydro-pyrimidine-2,4(1H,3H)-dione]
4 | < 100 nM | 100 to 500 nM | Cn1c(S(=O)(=O)N2CCC(Nc3ncc(C(F)(F)F)c(-c4cnn(CC(F)(F)F)c4)n3)CC2)cnc1CN1CCN(c2cc3c(cc2F)C(=O)N(C2CCC(=O)NC2=O)C3=O)CC1 (stereo not drawn) [Example 30, 2-(2,6-dioxopiperidin-3-yl)-5-fluoro-6-(4-((1-methyl-5-((4-((4-(1-(2,2,2-trifluoroethyl)-1H-pyrazol-4-yl)-5-(trifluoromethyl)pyrimidin-2-yl)amino)-piperidin-1-yl)sulfonyl)-1H-imidazol-2-yl)methyl)piperazin-1-yl)isoindoline-1,3-dione]
5 | < 100 nM | < 100 nM | O=C1CCC(N2C(=O)c3cc(F)c(N4CC5(CN(Cc6cccc(S(=O)(=O)N7CCC(Nc8ncc(C(F)(F)F)c(-c9cnn(CC(F)(F)F)c9)n8)CC7)c6)C5)C4)cc3C2=O)C(=O)N1 (stereo not drawn) [Example 31, 2-(2,6-dioxopiperidin-3-yl)-5-fluoro-6-(6-(3-((4-((4-(1-(2,2,2-trifluoroethyl)-1H-pyrazol-4-yl)-5-(trifluoromethyl)-pyrimidin-2-yl)amino)piperidin-1-yl)-sulfonyl)benzyl)-2,6-diazaspiro[3.3]-heptan-2-yl)isoindoline-1,3-dione]
6 | < 100 nM | < 100 nM | Cn1cc(-c2nc(NC3CCN(S(=O)(=O)c4cccc(CN5CCC(c6ccc7c(N8CCC(=O)NC8=O)nn(C)c7c6)CC5)c4)CC3)ncc2C(F)(F)F)cn1 [Example 33, 1-(1-methyl-6-(1-(3-((4-((4-(1-methyl-1H-pyrazol-4-yl)-5-(trifluoromethyl)-pyrimidin-2-yl)amino)piperidin-1-yl)-sulfonyl)benzyl)piperidin-4-yl)-1H-indazol-3-yl)dihydropyrimidine-2,4(1H,3H)-dione]
7 | < 100 nM | 100 to 500 nM | C[C@@H]1CN(S(=O)(=O)c2cccc(CN3CCC(c4ccc5c(N6CCC(=O)NC6=O)nn(C)c5c4)CC3)c2)CC[C@@H]1Nc1ncc(C(F)(F)F)c(-c2cnn(CC(F)(F)F)c2)n1 [Example 34, 1-(1-methyl-6-(1-(3-(((3R,4S)-3-methyl-4-((4-(1-(2,2,2-trifluoroethyl)-1H-pyrazol-4-yl)-5-(trifluoromethyl)-pyrimidin-2-yl)amino)piperidin-1-yl)-sulfonyl)benzyl)piperidin-4-yl)-1H-indazol-3-yl)dihydropyrimidine-2,4(1H,3H)-dione]
8 | < 100 nM | < 100 nM | O=C1CCN(c2ccc(N3CCN(Cc4cccc(S(=O)(=O)N5CCC(Nc6ncc(C(F)(F)F)c(-c7cnn(CC(F)(F)F)c7)n6)CC5)c4)CC3)nc2)C(=O)N1 [Example 41, 1-(6-(4-(3-((4-((4-(1-(2,2,2-trifluoro-ethyl)-1H-pyrazol-4-yl)-5-(trifluoro-methyl)pyrimidin-2-yl)amino)-piperidin-1-yl)sulfonyl)benzyl)-piperazin-1-yl)pyridin-3-yl)dihydro-pyrimidine-2,4(1H,3H)-dione]
9 | < 100 nM | < 100 nM | Cn1nc(N2CCC(=O)NC2=O)c2ccc(C3CCN(CC4CCN(c5cccc(S(=O)(=O)N6CCC(Nc7ncc(C(F)(F)F)c(-c8cnn(CC(F)(F)F)c8)n7)CC6)c5)CC4)CC3)cc21 [Example 50, 1-(1-methyl-6-(1-((1-(3-((4-((4-(1-(2,2,2-trifluoroethyl)-1H-pyrazol-4-yl)-5-(trifluoromethyl)pyrimidin-2-yl)amino)-piperidin-1-yl)sulfonyl)phenyl)-piperidin-4-yl)methyl)piperidin-4-yl)-1H-indazol-3-yl)dihydropyrimidine-2,4(1H,3H)-dione]
10 | < 100 nM | < 100 nM | Cn1nc(N2CCC(=O)NC2=O)c2ccc(C3CCN(Cc4cc(S(=O)(=O)N5CCC(Nc6ncc(C(F)(F)F)c(-c7cnn(CC(F)(F)F)c7)n6)CC5)ccc4F)CC3)cc21 [Example 61, 1-(6-(1-(2-fluoro-5-((4-((4-(1-(2,2,2-trifluoroethyl)-1H-pyrazol-4-yl)-5-(trifluoromethyl)pyrimidin-2-yl)-amino)piperidin-1-yl)sulfonyl)benzyl)-piperidin-4-yl)-1-methyl-1H-indazol-3-yl)dihydropyrimidine-2,4(1H,3H)-dione]
11 | < 100 nM | < 100 nM | Cc1ncsc1-c1ccc([C@H](C)NC(=O)[C@@H]2C[C@@H](O)CN2C(=O)[C@@H](NC(=O)CC2CCN(Cc3cccc(S(=O)(=O)N4CCC(Nc5ncc(C(F)(F)F)c(-c6cnn(CC(F)(F)F)c6)n5)CC4)c3)CC2)C(C)(C)C)cc1 [Example 62, (2S,4R)-1-((S)-3,3-dimethyl-2-(2-(1-(3-((4-((4-(1-(2,2,2-trifluoroethyl)-1H-pyrazol-4-yl)-5-(trifluoromethyl)-pyrimidin-2-yl)amino)piperidin-1-yl)-sulfonyl)benzyl)piperidin-4-yl)-acetamido)butanoyl)-4-hydroxy-N-((S)-1-(4-(4-methylthiazol-5-yl)phenyl)-ethyl)pyrrolidine-2-carboxamide]
12 | < 100 nM | < 100 nM | Cn1nc(N2CCC(=O)NC2=O)c2ccc(C3CCN(Cc4cccc(S(=O)(=O)N5CCC(Nc6ncc(C(F)(F)F)c(-c7cnn(CC(F)(F)F)c7)n6)CC5)c4)CC3)c(F)c21 [Example 64, 1-(7-fluoro-1-methyl-6-(1-(3-((4-((4-(1-(2,2,2-trifluoroethyl)-1H-pyrazol-4-yl)-5-(trifluoromethyl)pyrimidin-2-yl)amino)-piperidin-1-yl)sulfonyl)-benzyl)-piperidin-4-yl)-1H-indazol-3-yl)dihydro-pyrimidine-2,4(1H,3H)-dione]
13 | < 100 nM | < 100 nM | O=C1CCC(N2CC3CCC(C2)N3Cc2cccc(S(=O)(=O)N3CCC(Nc4ncc(C(F)(F)F)c(-c5cnn(CC(F)(F)F)c5)n4)CC3)c2)C(=O)N1 (stereo not drawn) [Example 65, 3-(8-(3-((4-((4-(1-(2,2,2-trifluoro-ethyl)-1H-pyrazol-4-yl)-5-(trifluoro-methyl)pyrimidin-2-yl)amino)-piperidin-1-yl)sulfonyl)benzyl)-3,8-diazabicyclo-[3.2.1]octan-3-yl)-piperidine-2,6-dione]
14 | < 100 nM | < 100 nM | Cn1nc(N2CCC(=O)NC2=O)c2ccc(N3CCN(CC4CCN(c5cccc(S(=O)(=O)N6CCC(Nc7ncc(C(F)(F)F)c(-c8cnn(CC(F)(F)F)c8)n7)CC6)c5)CC4)CC3)cc21 [Example 67, 1-(1-methyl-6-(4-((1-(3-((4-((4-(1-(2,2,2-trifluoroethyl)-1H-pyrazol-4-yl)-5-(trifluoromethyl)pyrimidin-2-yl)amino)-piperidin-1-yl)sulfonyl)phenyl)piperidin-4-yl)methyl)-piperazin-1-yl)-1H-indazol-3-yl)-dihydropyrimidine-2,4(1H,3H)-dione]
15 | < 100 nM | < 100 nM | O=C1CCC(NCc2cccc(S(=O)(=O)N3CCC(Nc4ncc(C(F)(F)F)c(-c5cnn(CC(F)(F)F)c5)n4)CC3)c2)C(=O)N1 (stereo not drawn) [Example 68, 3-((3-((4-((4-(1-(2,2,2-trifluoroethyl)-1H-pyrazol-4-yl)-5-(trifluoromethyl)-pyrimidin-2-yl)amino)piperidin-1-yl)-sulfonyl)benzyl)amino)piperidine-2,6-dione]
